Experimental data reported in the NIST ThermoML archive (doi:10.1021/je700062x).

Test: wn = mass fraction of the nth substance listed
Details: 101 kPa, Liquid, controlled-strain rheometer (ARES-RFS, TA Instruments)

OC[C@H]1O[C@@](CO)(O[C@H]2O[C@H](CO)[C@@H](O)[C@H](O)[C@H]2O)[C@@H](O)[C@@H]1O [D-sucrose] + O
viscosity [mPa·s]
Details | w1 = 0.05 | w1 = 0.1 | w1 = 0.2 | w1 = 0.3 | w1 = 0.4 | w1 = 0.5 | w1 = 0.6
268.15 K | – | – | – | – | 25.48 | 92.4 | 491.8
273.15 K | 2.45 | 2.978 | 4.42 | 7.19 | 19.81 | 66.8 | 316.5
278.15 K | 1.91 | 2.472 | 3.48 | 5.99 | 14.22 | 42.93 | 228.9
283.15 K | 1.72 | 2.02 | 3.01 | 5.06 | 11.31 | 31.33 | 153.1
293.15 K | 1.246 | 1.48 | 2.38 | 3.46 | 7.53 | 20.09 | 83.9

O=C[C@H](O)[C@@H](O)[C@H](O)[C@H](O)CO [D-glucose] + O
viscosity [mPa·s]
Details | w1 = 0.05 | w1 = 0.1 | w1 = 0.2 | w1 = 0.3 | w1 = 0.4 | w1 = 0.5
268.15 K | – | – | – | – | – | 50.8
273.15 K | 2.39 | 2.908 | 4.3 | 8.17 | 15.28 | 37.31
278.15 K | 1.98 | 2.47 | 3.46 | 5.94 | 11.19 | 26.54
283.15 K | 1.76 | 2.02 | 2.93 | 4.83 | 9.63 | 20.52
293.15 K | 1.36 | 1.58 | 2.13 | 3.46 | 6.21 | 13.43

O=C(CO)[C@@H](O)[C@H](O)[C@H](O)CO [D-fructose] + O
viscosity [mPa·s]
Details | w1 = 0.05 | w1 = 0.1 | w1 = 0.2 | w1 = 0.3 | w1 = 0.4 | w1 = 0.5 | w1 = 0.6 | w1 = 0.7
263.15 K | – | – | – | – | – | – | – | 4270
268.15 K | – | – | – | 7.97 | 18.51 | 54.8 | 238 | 2446
273.15 K | 2.345 | 2.89 | 4.2 | 6.39 | 14.02 | 35.06 | 148.7 | 1418
278.15 K | 1.999 | 2.44 | 3.39 | 5.5 | 10.84 | 25.27 | 103.4 | 843
283.15 K | 1.681 | 1.991 | 2.859 | 4.45 | 8.07 | 19.44 | 72 | 509.4
293.15 K | 1.26 | 1.43 | 2.092 | 3.07 | 5.67 | 14.33 | 38.31 | 220.7

O=C[C@H](O)[C@@H](O)[C@@H](O)[C@H](O)CO [(+)-galactose] + O
viscosity [mPa·s]
Details | w1 = 0.05 | w1 = 0.1 | w1 = 0.15 | w1 = 0.2 | w1 = 0.3 | w1 = 0.4
268.15 K | – | – | – | – | 8.95 | 18.84
273.15 K | 2.42 | 2.779 | 3.325 | 4.27 | 6.93 | 14.56
278.15 K | 2.077 | 2.4 | 2.77 | 3.37 | 5.34 | 11.17
283.15 K | 1.699 | 2.107 | 2.469 | 2.76 | 4.57 | 9
293.15 K | 1.397 | 1.52 | 1.77 | 2.1 | 3.27 | 6.11
